Reference: ChEMBL document CHEMBL1201862, “PubChem BioAssay data set” (2004)
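Cells were grown in 96-well plates and exposed to each compound for 48 hours at five concentrations; endpoints were interpolated linearly between bracketing concentrations, or set to the highest concentration if not reached. At the GI50, growth is halved.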 The source made the active and inactive calls. Rule as the data show it: active = GI50 up to about 1.1 µM and inactive = higher.

Assays:
Assay in all cases: growth of human tumour cells (NCI), 48 h
786-0 = test system: 786-0
BT-549 = test system: BT-549
COLO 205 = test system: COLO 205
HCT-116 = test system: HCT-116
IGROV-1 = test system: IGROV-1
KM12 = test system: KM12
LOX IMVI = test system: LOX IMVI
MCF7 = test system: MCF7
MOLT-4 = test system: MOLT-4
NCI-H522 = test system: NCI-H522
OVCAR-3 = test system: OVCAR-3
OVCAR-5 = test system: OVCAR-5
PC-3 = test system: PC-3
SF-295 = test system: SF-295
SK-MEL-2 = test system: SK-MEL-2
SNB-19 = test system: SNB-19
UO-31 = test system: UO-31
NCI-H226 = test system: NCI-H226
SNB-75 = test system: SNB-75
TK-10 = test system: TK-10

Measured: GI50

CCN(CC)Cc1ccc(C(=S)Nc2ccc(C)cc2)s1
inactive: 786-0 15.5 µM | BT-549 20.3 µM | COLO 205 16 µM | HCT-116 15.1 µM | IGROV-1 10.9 µM | KM12 15.3 µM | LOX IMVI 16 µM | MCF7 12.3 µM | MOLT-4 13 µM | NCI-H522 14.6 µM | OVCAR-3 21.2 µM | OVCAR-5 14.8 µM | PC-3 14.3 µM | SF-295 13.8 µM | SK-MEL-2 15.7 µM | SNB-19 19 µM | UO-31 15.5 µM

COC(=O)/C=C(\C)CC/C=C(\C)CCC1OC1(C)C (stereo not given)
inactive: 786-0 12.6 µM | BT-549 11.5 µM | COLO 205 15.5 µM | HCT-116 12.5 µM | IGROV-1 12.2 µM | KM12 9.48 µM | LOX IMVI 2.53 µM | MCF7 11.5 µM | MOLT-4 8.17 µM | NCI-H226 12.1 µM | OVCAR-3 11.7 µM | OVCAR-5 13.6 µM | PC-3 8.36 µM | SF-295 11.3 µM | SK-MEL-2 10.9 µM | SNB-19 44.7 µM | SNB-75 17.4 µM | TK-10 12.4 µM | UO-31 10.7 µM

O=C1NC(=S)NC(=O)C1C(c1ccccc1[N+](=O)[O-])C1C(=O)NC(=S)NC1=O.c1ccncc1
inactive: 786-0 > 100 µM | BT-549 > 100 µM | COLO 205 > 100 µM | HCT-116 > 100 µM | KM12 > 100 µM | LOX IMVI > 100 µM | MCF7 > 100 µM | MOLT-4 > 100 µM | NCI-H226 > 100 µM | NCI-H522 > 100 µM | OVCAR-3 > 100 µM | OVCAR-5 > 100 µM | PC-3 > 100 µM | SF-295 > 100 µM | SK-MEL-2 > 100 µM | SNB-19 > 100 µM | TK-10 > 100 µM | UO-31 > 100 µM

O=[N+]([O-])c1cccc2c(/N=N/c3ccc4ccccc4c3O)c(O)cc(S(=O)(=O)O)c12
inactive: 786-0 17.8 µM | BT-549 74.6 µM | HCT-116 31 µM | IGROV-1 7.29 µM | KM12 55.6 µM | LOX IMVI 6.18 µM | MOLT-4 5.21 µM | NCI-H226 22.6 µM | NCI-H522 7.36 µM | OVCAR-3 3.47 µM | OVCAR-5 34.8 µM | PC-3 18.8 µM | SF-295 20.9 µM | SK-MEL-2 22.6 µM | SNB-19 > 100 µM | SNB-75 44 µM | TK-10 49.7 µM | UO-31 6.03 µM

Cc1ccc(NC(=O)/C(=N\NC(N)=O)c2c(O)c3ccccc3[nH]c2=O)cc1
inactive: 786-0 > 100 µM | BT-549 > 100 µM | COLO 205 > 100 µM | HCT-116 > 100 µM | KM12 > 100 µM | LOX IMVI > 100 µM | MCF7 > 100 µM | MOLT-4 > 100 µM | NCI-H226 > 100 µM | OVCAR-3 > 100 µM | OVCAR-5 > 100 µM | PC-3 > 100 µM | SF-295 > 100 µM | SK-MEL-2 > 100 µM | SNB-19 > 100 µM | SNB-75 99.8 µM | UO-31 > 100 µM

CC1=C(C)C2(C#N)C(=O)N3C(=NC(c4ccco4)NC3c3ccco3)C2(C#N)C(c2ccco2)N1 (stereo not given)
inactive: 786-0 > 100 µM | BT-549 > 100 µM | COLO 205 > 100 µM | HCT-116 > 100 µM | IGROV-1 > 100 µM | KM12 > 100 µM | LOX IMVI > 100 µM | MCF7 > 100 µM | MOLT-4 > 100 µM | NCI-H226 > 100 µM | NCI-H522 > 100 µM | OVCAR-5 > 100 µM | PC-3 > 100 µM | SF-295 > 100 µM | SK-MEL-2 > 100 µM | SNB-19 > 100 µM | TK-10 > 100 µM | UO-31 > 100 µM

Nc1c([N+](=O)[O-])cc2c3c(cccc13)CC2
inactive: 786-0 57.4 µM | BT-549 74.6 µM | COLO 205 64.1 µM | HCT-116 39.1 µM | IGROV-1 > 100 µM | KM12 > 100 µM | LOX IMVI 65.2 µM | MOLT-4 23.6 µM | NCI-H226 > 100 µM | NCI-H522 93.8 µM | OVCAR-3 > 100 µM | OVCAR-5 > 100 µM | PC-3 > 100 µM | SF-295 91.6 µM | SK-MEL-2 51.3 µM | SNB-19 86.3 µM | SNB-75 > 100 µM | TK-10 42.8 µM | UO-31 42.5 µM

COC(=O)C1(C(=O)OC)N=C(C)OC1c1ccccc1O (stereo not given)
inactive: 786-0 > 100 µM | BT-549 > 100 µM | COLO 205 > 100 µM | HCT-116 > 100 µM | IGROV-1 > 100 µM | KM12 > 100 µM | LOX IMVI > 100 µM | MCF7 > 100 µM | MOLT-4 > 100 µM | NCI-H226 > 100 µM | OVCAR-3 > 100 µM | OVCAR-5 > 100 µM | PC-3 > 100 µM | SF-295 > 100 µM | SK-MEL-2 > 100 µM | SNB-19 > 100 µM | SNB-75 > 100 µM | TK-10 > 100 µM | UO-31 > 100 µM

O=S(=O)(O)c1ccc(O)c(/N=N/c2c(O)ccc3ccccc23)c1
inactive: 786-0 > 100 µM | BT-549 > 100 µM | COLO 205 87.3 µM | HCT-116 > 100 µM | IGROV-1 > 100 µM | KM12 > 100 µM | LOX IMVI > 100 µM | MOLT-4 > 100 µM | NCI-H226 > 100 µM | NCI-H522 > 100 µM | OVCAR-3 34.6 µM | OVCAR-5 > 100 µM | PC-3 > 100 µM | SF-295 > 100 µM | SK-MEL-2 > 100 µM | SNB-19 > 100 µM | SNB-75 > 100 µM | TK-10 > 100 µM | UO-31 > 100 µM

CN(C)C(=O)Oc1ccc(C(=S)Nc2ccccc2)cc1Br
inactive: 786-0 62.8 µM | BT-549 31.3 µM | COLO 205 24.2 µM | HCT-116 34 µM | IGROV-1 21 µM | KM12 21.7 µM | LOX IMVI 20.9 µM | MCF7 25.8 µM | MOLT-4 13.2 µM | NCI-H522 14.8 µM | OVCAR-3 30.1 µM | OVCAR-5 41.9 µM | PC-3 27.7 µM | SF-295 5.11 µM | SK-MEL-2 21.9 µM | SNB-19 74.6 µM | UO-31 33.5 µM

COC(=O)/C1=C/C=C\C[C@@]2(C)CC(c3ccoc3)OC(=O)[C@@H]2CC[C@H]1C (stereo not given in full)
inactive: 786-0 > 25 µM | BT-549 > 25 µM | COLO 205 > 25 µM | HCT-116 > 25 µM | IGROV-1 > 25 µM | KM12 > 25 µM | LOX IMVI > 25 µM | MCF7 > 25 µM | MOLT-4 > 25 µM | NCI-H226 > 25 µM | OVCAR-3 > 25 µM | OVCAR-5 > 25 µM | PC-3 > 25 µM | SF-295 > 25 µM | SK-MEL-2 > 25 µM | SNB-19 > 25 µM | SNB-75 > 25 µM | TK-10 > 25 µM | UO-31 > 25 µM
